Assay results reported in patent US12350259B2, “Methods of treating migraine” (Allergan Pharmaceuticals International Limited, priority 2021, dated 2025).
Where “and” joins values, the source holds several entries; their conditions need not be identical. Equal values may be shown once. Read-outs that look alike come from different tables or passages of the source.

Legend:
[1] = target: NTCP (Homo sapiens, UniProt Q14973); assay: Transporter inhibition; assay type: in vitro ADME; settings: clinically relevant concentrations
[2] = Atogepant-rifampin drug interaction study: atogepant plasma PK; assay type: in vivo, human; settings: for Tmax: read-out: Tmax (median); for Vd/F: read-out: Vz/F
Procedure: The study consisted of a Screening Visit, two study periods, an end-of-treatment (EOT) visit, and a follow-up visit. […] [table] […] Relative to the time that atogepant was administered, blood samples for atogepant plasma PK were to be collected at the following times: • Days 1 and 12: 0 hour (predose) and at 0.5, 1, 1.5, 2, 3, 4, 6, 8, 12, 16, 24, 36, and 48 hours post dose. • Day 7: 0 hour (predose) and at 0.5, 1, 1.5, 2, 3, 4, 6, 8, 12, 16, and 24 hours postdose

[3] = Atogepant-esomeprazole drug interaction study: atogepant PK; assay type: in vivo, human; settings: for Tmax: human, plasma, oral
Procedure: A phase 1, open-label, 2-intervention, single-sequence, nonrandomized, crossover, drug-drug interaction study was conducted to evaluate the effects of multiple-dose esomeprazole magnesium 40 mg on pharmacokinetics (PK) and safety of co-administered single-dose atogepant 60 mg in healthy adults.
In this study, healthy adult participants received single-dose oral atogepant 60 mg on day 1, followed by once-daily esomeprazole 40 mg on days 7-13, co-administered with single-dose atogepant on day 12. Samples for atogepant PK analysis were collected on days 1 and 12. PK parameters calculated from atogepant plasma concentrations included peak plasma concentration (Cmax); time to Cmax (tmax); area under plasma concentration-time curve from time 0 to […] (AUC0-t) and from time 0 to infinity (AUC0-∞). PK parameters of atogepant alone vs. co-administered with esomeprazole were compared using a mixed-effects model. Statistical significance was achieved if 90% confidence intervals (CIs) for geometric least squares mean ratios (GMRs) of PK parameter values for atogepant co-administered with esomeprazole to atogepant administered alone were within 80%-125%.

[4] = target: OATP1B1 (Homo sapiens, UniProt Q9Y6L6); assay: Transporter inhibition; assay type: in vitro ADME
[5] = target: OAT1 (Homo sapiens, UniProt Q4U2R8); assay: Transporter inhibition; assay type: in vitro ADME; settings: clinically relevant concentrations
[6] = Treatment A: atogepant 60 mg alone
[7] = Treatment B1 (single-dose rifampin) / Treatment A
[8] = Treatment B2 (multi-dose rifampin) / Treatment A
[9] = Treatment B2: atogepant 60 mg + multiple-dose rifampin 600 mg
[10] = atogepant 60 mg + multiple-dose rifampin 600 mg (strong CYP3A4 inducer) vs atogepant alone
[11] = atogepant 60 mg + single-dose rifampin 600 mg (OATP inhibitor) vs atogepant alone
[12] = both sexes, human, plasma, oral, 60 mg, Treatment A: atogepant 60 mg alone
[13] = both sexes, human, plasma, oral, Treatment B2: atogepant 60 mg + multiple-dose rifampin 600 mg

OAT1, sequence (Q4U2R8 whole entry): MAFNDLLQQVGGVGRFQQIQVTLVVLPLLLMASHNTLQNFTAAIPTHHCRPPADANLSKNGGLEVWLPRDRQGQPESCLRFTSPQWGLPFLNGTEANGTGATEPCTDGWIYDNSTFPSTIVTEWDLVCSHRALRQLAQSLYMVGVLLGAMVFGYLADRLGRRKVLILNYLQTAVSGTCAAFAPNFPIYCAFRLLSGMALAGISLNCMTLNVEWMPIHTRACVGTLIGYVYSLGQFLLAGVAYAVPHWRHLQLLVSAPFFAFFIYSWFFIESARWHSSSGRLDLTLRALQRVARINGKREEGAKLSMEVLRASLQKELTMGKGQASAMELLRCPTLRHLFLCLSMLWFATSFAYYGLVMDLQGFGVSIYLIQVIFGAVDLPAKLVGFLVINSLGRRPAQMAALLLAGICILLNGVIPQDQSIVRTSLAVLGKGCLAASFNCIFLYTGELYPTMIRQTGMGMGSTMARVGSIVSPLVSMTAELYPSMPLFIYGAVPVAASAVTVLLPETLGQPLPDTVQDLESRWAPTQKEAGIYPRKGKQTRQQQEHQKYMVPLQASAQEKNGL
NTCP, sequence (Q14973 whole entry): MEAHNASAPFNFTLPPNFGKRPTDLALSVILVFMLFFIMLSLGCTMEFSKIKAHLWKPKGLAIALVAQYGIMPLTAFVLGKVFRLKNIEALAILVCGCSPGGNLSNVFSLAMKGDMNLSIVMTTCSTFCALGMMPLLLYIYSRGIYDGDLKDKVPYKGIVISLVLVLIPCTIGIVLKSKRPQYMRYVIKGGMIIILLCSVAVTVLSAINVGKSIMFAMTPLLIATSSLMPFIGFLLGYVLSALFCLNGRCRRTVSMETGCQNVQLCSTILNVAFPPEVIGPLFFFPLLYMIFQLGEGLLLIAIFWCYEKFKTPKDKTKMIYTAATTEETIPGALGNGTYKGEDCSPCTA
OATP1B1, sequence (Q9Y6L6 whole entry): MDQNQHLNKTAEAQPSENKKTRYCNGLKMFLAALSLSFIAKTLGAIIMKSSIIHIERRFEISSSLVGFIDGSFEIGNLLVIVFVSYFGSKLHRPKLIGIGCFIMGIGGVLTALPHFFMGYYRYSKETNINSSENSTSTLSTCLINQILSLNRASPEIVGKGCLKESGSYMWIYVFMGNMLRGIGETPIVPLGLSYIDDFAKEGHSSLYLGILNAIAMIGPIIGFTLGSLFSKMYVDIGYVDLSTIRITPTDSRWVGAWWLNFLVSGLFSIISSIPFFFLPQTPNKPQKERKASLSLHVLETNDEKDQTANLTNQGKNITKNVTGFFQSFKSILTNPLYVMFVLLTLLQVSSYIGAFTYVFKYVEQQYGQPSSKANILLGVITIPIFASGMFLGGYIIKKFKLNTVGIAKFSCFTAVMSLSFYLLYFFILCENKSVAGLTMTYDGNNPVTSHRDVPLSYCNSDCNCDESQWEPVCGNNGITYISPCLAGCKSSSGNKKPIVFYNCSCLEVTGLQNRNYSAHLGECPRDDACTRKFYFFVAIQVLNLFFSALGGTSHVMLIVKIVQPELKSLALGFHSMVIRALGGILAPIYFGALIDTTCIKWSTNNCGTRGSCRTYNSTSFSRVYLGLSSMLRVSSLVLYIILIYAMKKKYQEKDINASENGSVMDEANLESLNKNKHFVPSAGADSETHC

SMILES: C[C@@H]1[C@H](c2c(F)ccc(F)c2F)C[C@H](NC(=O)c2cnc3c(c2)C[C@@]2(C3)C(=O)Nc3ncccc32)C(=O)N1CC(F)(F)F [atogepant, (3′S)-N-[(3S,5S,6R)-6-methyl-2-oxo-1-(2,2,2-trifluoroethyl)-5-(2,3,6-trifluorophenyl)piperidin-3-yl]-2′-oxo-1′,2′,5,7-tetrahydrospiro[cyclopenta[b]pyridine-6,3′-pyrrolo[2,3-b]pyridine]-3-carboxamide]
- inhibition of NTCP [1]: not an inhibitor
- CL/F [2, 6]: 22.8 L/h
- λz [2, 6]: 0.0778 h⁻¹
- AUC0-24 Ratio of Geometric Means Test/Ref [2, 7]: 284.84%
- Cmax Ratio of Geometric Means Test/Ref [2, 7]: 222.65%
- AUC0-t Ratio of Geometric Means Test/Ref [2, 8]: 40.46%
- AUC0-∞ Ratio of Geometric Means Test/Ref [2, 8]: 38.85%
- Cmax Ratio of Geometric Means Test/Ref [2, 8]: 70.06%
- CL/F [2, 9]: 58.3 L/h and 58.3^b L/h
- λz [2, 9]: 0.325^b 1/h
- reduction of atogepant AUC0-t (AUC) [2, 10]: 60%
- reduction of atogepant Cmax [2, 10]: 30%
- reduction of atogepant AUC0-∞ ([2]; atogepant 60 mg + multiple-dose rifampin 600 mg vs atogepant alone): 61%
- increase in atogepant AUC0-24 [2, 11]: 2.85 fold
- increase in atogepant Cmax [2, 11]: 2.23 fold
- half-life [2, 12]: 11.4 h
- AUC(0-t) ([2]; both sexes, human, plasma, oral, 60 mg, Treatment A: atogepant 60 mg alone, read-out: AUC0-24): 2870 ng·h/mL
- AUC(0-t) ([2]; both sexes, human, plasma, oral, 60 mg, Treatment A: atogepant 60 mg alone, read-out: AUC0-24 Geometric LSM, Reference): 2680 ng·h/mL
- AUC(0-t) ([2]; both sexes, human, plasma, oral, 60 mg, Treatment A: atogepant 60 mg alone, read-out: AUC0-t): 2960 ng·h/mL
- AUC(0-t) ([2]; both sexes, human, plasma, oral, 60 mg, Treatment A: atogepant 60 mg alone, read-out: AUC0-t Geometric LSM, Reference): 2770 ng·h/mL
- AUC(0-inf) ([2]; both sexes, human, plasma, oral, 60 mg, Treatment A: atogepant 60 mg alone, read-out: AUC0-∞): 3000 ng·h/mL
- AUC(0-inf) ([2]; both sexes, human, plasma, oral, 60 mg, Treatment A: atogepant 60 mg alone, read-out: AUC0-∞ Geometric LSM, Reference): 2810 ng·h/mL
- Cmax ([2]; both sexes, human, plasma, oral, 60 mg, Treatment A: atogepant 60 mg alone, read-out: Cmax): 711 ng/mL
- Cmax ([2]; both sexes, human, plasma, oral, 60 mg, Treatment A: atogepant 60 mg alone, read-out: Cmax Geometric LSM, Reference): 649 ng/mL
- Tmax [2, 12]: 1.5 h
- AUC(0-t) ([2]; both sexes, human, plasma, oral, Treatment B1: atogepant 60 mg + single-dose rifampin 600 mg, read-out: AUC0-24): 8130 ng·h/mL
- AUC(0-t) ([2]; both sexes, human, plasma, oral, Treatment B1: atogepant 60 mg + single-dose rifampin 600 mg, read-out: AUC0-24 Geometric LSM, Test): 7630 ng·h/mL
- Cmax ([2]; both sexes, human, plasma, oral, Treatment B1: atogepant 60 mg + single-dose rifampin 600 mg, read-out: Cmax): 1550 ng/mL
- Cmax ([2]; both sexes, human, plasma, oral, Treatment B1: atogepant 60 mg + single-dose rifampin 600 mg, read-out: Cmax Geometric LSM, Test): 1440 ng/mL
- Tmax ([2]; both sexes, human, plasma, oral, Treatment B1: atogepant 60 mg + single-dose rifampin 600 mg): 2 h
- half-life [2, 13]: 2.39 h
- AUC(0-t) ([2]; both sexes, human, plasma, oral, Treatment B2: atogepant 60 mg + multiple-dose rifampin 600 mg, read-out: AUC0-t): 1180 ng·h/mL
- AUC(0-t) ([2]; both sexes, human, plasma, oral, Treatment B2: atogepant 60 mg + multiple-dose rifampin 600 mg, read-out: AUC0-t Geometric LSM, Test): 1120 ng·h/mL
- AUC(0-inf) ([2]; both sexes, human, plasma, oral, Treatment B2: atogepant 60 mg + multiple-dose rifampin 600 mg, read-out: AUC0-∞): 1130 ng·h/mL
- AUC(0-inf) ([2]; both sexes, human, plasma, oral, Treatment B2: atogepant 60 mg + multiple-dose rifampin 600 mg, read-out: AUC0-∞ Geometric LSM, Test): 1090 ng·h/mL
- Cmax ([2]; both sexes, human, plasma, oral, Treatment B2: atogepant 60 mg + multiple-dose rifampin 600 mg, read-out: Cmax): 487 ng/mL
- Cmax ([2]; both sexes, human, plasma, oral, Treatment B2: atogepant 60 mg + multiple-dose rifampin 600 mg, read-out: Cmax Geometric LSM, Test): 454 ng/mL
- Tmax [2, 13]: 1.5 h
- Vd/F [2, 13]: 197 L
- reduction in mean apparent half-life ([2]; both sexes, human, plasma, oral, atogepant + multiple dose rifampin vs atogepant alone, read-out: reduction of mean apparent T1/2 (converted)): ~9 h
- Vd/F ([2]; both sexes, human, plasma, oral, Treatment A: atogepant 60 mg alone): 390 L
- reduced Cmax ([3]; coadministration with esomeprazole): 23%
- Tmax ([3]; 60 mg, atogepant 60 mg alone, read-out: median plasma atogepant tmax): 1.51 h
- Tmax ([3]; atogepant 60 mg coadministered with esomeprazole 40 mg, read-out: median plasma atogepant tmax): 3 h
- Tmax ([3]; coadministration with esomeprazole vs alone, read-out: delay of median tmax): 1.5 h
- inhibition of OATP1B1 [4]: weak inhibitor
- inhibition of OAT1 [5]: not an inhibitor
